Data published in article PMC6127852 (Journal of Enzyme Inhibition and Medicinal Chemistry, 2018).
In brackets after ≈: the same amount, converted by molar mass.

What was measured:
E. coli ESBL = assay: Broth microdilution MIC, ESBL E. coli clinical strain; format: cell-based; settings: Escherichia coli
K. pneumoniae ESBL = assay: Broth microdilution MIC, ESBL K. pneumoniae clinical strain; format: cell-based; settings: Klebsiella pneumoniae
Procedure: The compounds were evaluated for their in vitro anti-bacterial activity against Gram-positive bacteria: S. aureus (ATCC 25923), MRSA, methicillin-sensitive S. aureus (MSSA), E. faecalis, vancomycin-resistant E. faecium (VREF), and Gram-negative bacteria: E. coli (ATCC 25925), P. aeruginosa (ATCC 27853), A. baumannii (ATCC 19606) and ESBL-producing K. pneumoniae (ATCC 27736). Standard broth microdilution method as recommended in guidelines of Clinical and Laboratory Standards Institute[61] ^, [65] ^, [66] was applied and the minimum inhibitory concentration (MIC) of compounds was tested. In short, testing was performed in U-bottomed 96-well sterile plastic microdilution trays (Falcon 3077, Becton Dickinson Labware, Franklin Lakes, NJ) in cation (Ca^2+ and Mg^2+) adjusted Mueller–Hinton broth medium (Becton Dickinson and Co., Cockeysville, MD). All testings were performed in triplicate.

P. aeruginosa ESBL = assay: Broth microdilution MIC, ESBL P. aeruginosa clinical strain; format: cell-based; settings: Pseudomonas aeruginosa
E. coli ATCC 25925 = assay: Broth microdilution MIC, E. coli ATCC 25925; format: cell-based; settings: Escherichia coli, ATCC25925; Table S2
Summary of the method: (§1)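 Read-out is the minimum inhibitory concentration, obtained by broth microdilution following Clinical and Laboratory Standards Institute guidelines, with Mueller–Hinton broth adjusted for Ca^2+ and Mg^2+ as medium.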

P. aeruginosa ATCC 27853 = assay: Broth microdilution MIC, P. aeruginosa ATCC 27853; format: cell-based; settings: Pseudomonas aeruginosa, ATCC27853; Table S2
Summary of the method: as §1

calf thymus ctDNA = assay: UV–Vis titration with ctDNA (Scatchard); format: binding; settings: PBS, pH 7; for Hypochromic effect H/%, ctDNA: UV–Vis titration, calculated by Scatchard equation; for log Ks, ctDNA: binding constant, Scatchard
Procedure: (§2) Polynucleotides were purchased as follows: polyG–polyC, polyA–polyU (Sigma-Aldrich, St. Louis, MO), calf thymus ctDNA (Aldrich). Polynucleotides were dissolved in PBS buffer, I = 0.05 mol dm^−3, pH 7.0. The calf thymus ctDNA was additionally sonicated and filtered through a […] filter. The polynucleotide concentration was spectroscopically determined as the concentration of nucleobases.
(§3) All UV–Vis absorbance measurements were conducted on a Perkin Elmer Lambda 25 spectrophotometer (Perkin Elmer, Waltham, MA). A quartz cell with a 1 cm path length was used for all absorbance studies. Compound stock solutions were 1 mM. The DNA/RNA at increasing ratios was then titrated into the compound buffer solution (1.48 × 10^−5 mol dm^−3) and the corresponding absorption spectra were recorded under the same conditions. All data were graphed and analysed using Origin software version 9.0 (OriginLab Corporation, Northampton, MA). The stability constants (Ks) and [bound compound]/[polynucleotide phosphate] ratios (n) were calculated according to the Scatchard Equation[63] ^, [64]. Values for Ks and n given in Table 1 all have satisfying correlation coefficients (0.99).
(§4) The binding constants logKs and the density of the binding sites n were calculated using Scatchard plot analysis. In addition, the binding constants Ks for compounds 8b and 8e were calculated only for titration data taken at the r ≥ 0.1, because below that ratio changes in absorption maxima were too small for accurate calculation (ΔA ≤ 0.04) (Table 1). The binding constants Ks and ratios n obtained by processing UV–Vis titration data using the Scatchard equation are summarised in Table 1.

polyA-polyU [1] = assay: UV–Vis titration with polyA-polyU (Scatchard); format: binding; settings: for Hypochromic effect H/%, polyA-polyU: UV–Vis titration, calculated by Scatchard equation; for Hypochromic effect H/%, polyA-polyU / log Ks, polyA-polyU: PBS, pH 7; for log Ks, polyA-polyU: binding constant, Scatchard
Procedure: as §2, §3, §4

polyC-polyG = assay: UV–Vis titration with polyC-polyG (Scatchard); format: binding; settings: PBS, pH 7; for log Ks, polyC-polyG: binding constant, Scatchard; for Hypochromic effect H/%, polyC-polyG: UV–Vis titration, calculated by Scatchard equation
Procedure: as §2, §3, §4

ctDNA = assay: Thermal melting (ΔTm) of ctDNA; format: binding, calf; settings: PBS, pH 7; for ΔTm, ctDNA, r = 0.3: r = [compound]/[polynucleotide] 0.3, error ±0.5 °C
Procedure: (§5) T m experiments were conducted with a Perkin Elmer Lambda 25 spectrophotometer in 1 cm quartz cuvettes. The absorbance of the DNA/RNA-compound complex was monitored at 260 nm as a function of temperature. The absorbance of the ligands was subtracted from every curve, and the absorbance scale was normalised. The ΔT m values were calculated by subtracting T m of the free nucleic acid from T m of the complex. Every reported ΔT m value was the average of at least two measurements. The error of ΔT m is ±0.5 °C. All data were graphed and analysed using Origin software version 9.0.
(§6) Denaturation experiments were carried out at different amounts of the compounds (r = 0.1, 0.3, 0.5, and 0.7 eq; r = [compound]/[polynucleotide]) with ctDNA and polyA-polyU.

polyA-polyU [2] = assay: Thermal melting (ΔTm) of polyA-polyU; format: binding; settings: for ΔTm, polyA-polyU, r = 0.1: PBS, pH 7; for ΔTm, polyA-polyU, r = 0.3 / ΔTm, polyA-polyU, r = 0.5: first melting midpoint; for ΔTm, polyA-polyU, r = 0.3, second melting midpoint / ΔTm, polyA-polyU, r = 0.5, second melting midpoint: footnote c: biphasic melting curve
Procedure: as §5, §6

S. aureus MRSA = assay: Broth microdilution MIC, MRSA clinical strain; format: cell-based; settings: Staphylococcus aureus, antibiotic-resistant clinical strain
Summary of the method: (§7)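 MICs were set by CLSI broth microdilution in cation (Ca2+, Mg2+)-adjusted Mueller–Hinton broth, in triplicate. Panel: S. aureus ATCC 25923, MRSA, MSSA, E. faecalis, VRE E. faecium, E. coli ATCC 25925, P. aeruginosa ATCC 27853, A. baumannii ATCC 19606 and ESBL K. pneumoniae ATCC 27736.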

S. aureus MSSA = assay: Broth microdilution MIC, MSSA clinical strain; format: cell-based; settings: Staphylococcus aureus
Summary of the method: as §7

E. faecium VRE = assay: Broth microdilution MIC, VRE clinical strain; format: cell-based; settings: Enterococcus faecium
Summary of the method: as §7

S. aureus ATCC 25923 = assay: Broth microdilution MIC, S. aureus ATCC 25923; format: cell-based; settings: Staphylococcus aureus, ATCC25923; Table S2
Summary of the method: as §1

E. faecalis ATCC 29212 = assay: Broth microdilution MIC, E. faecalis ATCC 29212; format: cell-based; settings: Enterococcus faecalis, ATCC29212; Table S2
Summary of the method: as §1

K. pneumonia ATCC 700803 = assay: Broth microdilution MIC, K. pneumoniae ATCC 700803; format: cell-based; settings: Klebsiella pneumoniae, ATCC700803; Table S2
Summary of the method: as §1

A. baumannii ATCC 19606 = assay: Broth microdilution MIC, A. baumannii ATCC 19606; format: cell-based; settings: Acinetobacter baumannii, ATCC19606; Table S2
Summary of the method: as §1

[3] = tested on: bloodstream form T. brucei (strain 221); assay: Anti-trypanosomal screening, resazurin; format: cell-based; settings: Trypanosoma brucei, mean of triplicate ± SEM
Procedure: Bloodstream form T. brucei (strain 221) were cultured in modified Iscove’s medium, as outlined[67] and trypanocidal assays were performed using 96-well microtitre plates. […] Resazurin was added after 48 h, the plates incubated for a further 16 h, and then read in a Spectramax plate reader (Molecular Devices Corporation, San Jose, CA). The data were analysed using GraphPad Prism (GraphPad, La Jolla, CA). Each drug concentration was tested in triplicate.

[4] = tested on: polyA-polyU (RNA, polymer) A/U; assay: UV melting at 260 nm; settings: PBS, I = 0.05 M, cations not specified, pH 7, r = 0.3 [compound]/[polynucleotide]
[5] = tested on: polyA-polyU (RNA, polymer) A/U; assay: UV-Vis titration, Scatchard; settings: PBS, I = 0.05 M (Table 1 says I = 0.015 M), cations not specified, I = 0.015 M (Methods: 0.05 M)
[6] = tested on: polyG-polyC (polyC-polyG) (RNA, polymer) G/C; assay: UV-Vis titration, Scatchard; settings: PBS, I = 0.05 M (Table 1 says I = 0.015 M), cations not specified, I = 0.015 M (Methods: 0.05 M)

SMILES | MIC (E. coli ESBL) | MIC (P. aeruginosa ESBL) | MIC (E. coli ATCC 25925) | MIC (P. aeruginosa ATCC 27853) | Hypochromic effect H/%, ctDNA (calf thymus ctDNA) | log Ks, ctDNA (calf thymus ctDNA) | log Ks, polyA-polyU (polyA-polyU [1]) | log Ks, polyC-polyG (polyC-polyG) | ΔTm, ctDNA, r = 0.5 (ctDNA) | ΔTm, ctDNA, r = 0.7 (ctDNA) | ΔTm, ctDNA, r = 0.3 (ctDNA) | ΔTm, polyA-polyU, r = 0.1 (polyA-polyU [2]) | ΔTm, polyA-polyU, r = 0.3 (polyA-polyU [2]) | ΔTm, polyA-polyU, r = 0.5 (polyA-polyU [2]) | MIC (S. aureus MRSA) | MIC (S. aureus MSSA) | MIC (E. faecium VRE) | MIC (S. aureus ATCC 25923) | MIC (E. faecalis ATCC 29212) | MIC (K. pneumonia ATCC 700803) | further results
CC(C)(O/N=C(\C(=O)N[C@@H]1C(=O)N2C(C(=O)[O-])=C(C[n+]3ccccc3)CS[C@H]12)c1csc(N)n1)C(=O)O [Ceftazidime, ceftazidime, reference compound] | 8 µg/mL (≈ 14.6 µM) | 32 µg/mL (≈ 58.5 µM) | 0.5 µg/mL (≈ 0.915 µM) | 4 µg/mL (≈ 7.32 µM) |  |  |  |  |  |  |  |  |  |  |  |  |  |  |  |  | MIC (K. pneumoniae ESBL): > 128 µg/mL
N=C(N)c1ccc2[nH]c(-c3ccc(OCc4cn(-c5ccccc5)nn4)cc3)nc2c1 [Compound 7a] | 4 µg/mL (≈ 9.77 µM) | 128 µg/mL (≈ 313 µM) | 32 µg/mL (≈ 78.2 µM) | 128 µg/mL (≈ 313 µM) | 7.8% | 6.76 | 5.24 | 6.44 | 4.84 °C | 4.69 °C | 2.46 °C | 1.74 °C | 1.74 °C | 2.53 °C | 16 µg/mL (≈ 39.1 µM) | 32 µg/mL (≈ 78.2 µM) | 32 µg/mL (≈ 78.2 µM) | 32 µg/mL (≈ 78.2 µM) | 64 µg/mL (≈ 156 µM) | 128 µg/mL (≈ 313 µM) | Hypochromic effect H/%, polyA-polyU (polyA-polyU [1]): 19.3%; MIC (K. pneumoniae ESBL): 8 µg/mL (≈ 19.5 µM); MIC (A. baumannii ATCC 19606): > 256 µg/mL; IC50 [3]: 8.6 ± 0.5 µM; IC90 [3]: 16.2 ± 0.9 µM; ΔTm ([4]; error ±0.5, per base): 1.74 °C; log Ks ([5]; pH 7, per base): 5.24; log Ks ([6]; pH 7, n fixed, per base): 6.44
c1ccc(Cn2cc(COc3ccc(-c4nc5cc(C6=NCCN6)ccc5[nH]4)cc3)nn2)cc1 [Compound 9d] | 128 µg/mL (≈ 285 µM) | 128 µg/mL (≈ 285 µM) | 128 µg/mL (≈ 285 µM) | 128 µg/mL (≈ 285 µM) | 24.6% | 5.84 | 5.89 | 6.59 | 3.52 °C | 2.60 °C | 3.31 °C | 1.26 °C | 1.42 °C | 2.06 °C | 64 µg/mL (≈ 142 µM) | 64 µg/mL (≈ 142 µM) | 64 µg/mL (≈ 142 µM) | 64 µg/mL (≈ 142 µM) | 128 µg/mL (≈ 285 µM) | > 256 µg/mL | Hypochromic effect H/%, polyA-polyU (from experimental data) (polyA-polyU [1]; footnote e: calculated from experimental data): 55.5 ^e %; Hypochromic effect H/%, polyC-polyG (polyC-polyG): 5.89%; ΔTm, polyA-polyU, r = 0.3, second melting midpoint (polyA-polyU [2]): 10.30^c °C; ΔTm, polyA-polyU, r = 0.5, second melting midpoint (polyA-polyU [2]): 13.29^c °C; MIC (A. baumannii ATCC 19606): > 256 µg/mL; IC50 [3]: 10.8 ± 0.4 µM; IC90 [3]: > 25 µM; ΔTm ([4]; error ±0.5, biphasic, second midpoint 10.30, per base): 1.42 °C; log Ks ([5]; pH 7, n fixed, per base): 5.89; log Ks ([6]; pH 7, per base): 6.59
Cl.Cl.c1ccc(SCn2cc(COc3ccc(-c4nc5cc(C6=NCCN6)ccc5[nH]4)cc3)nn2)cc1 [Compound 9e, 5–(4,5-Dihydro-1H-imidazol-2-yl)-2–(4-((1-(phenylthiomethyl)-1H-1,2,3-triazol-4-yl)methoxy)phenyl)-1H-benz[d]imidazole dihydrochloride] | 64 µg/mL | 64 µg/mL | 64 µg/mL | 128 µg/mL | 41.1% | 6.21 | 5.36 | 4.29 | 3.47 °C | 3.60 °C | 2.87 °C | 1.11 °C | 0.47 °C | 0.47 °C | 64 µg/mL | 64 µg/mL | 32 µg/mL | 32 µg/mL | 128 µg/mL | > 256 µg/mL | Hypochromic effect H/%, polyA-polyU (polyA-polyU [1]): 31.6%; Hypochromic effect H/%, polyC-polyG (polyC-polyG): 5.21%; ΔTm, polyA-polyU, r = 0.3, second melting midpoint (polyA-polyU [2]): 12.46^c °C; ΔTm, polyA-polyU, r = 0.5, second melting midpoint (polyA-polyU [2]): 13.89^c °C; MIC (A. baumannii ATCC 19606): > 256 µg/mL; IC50 [3]: 9.7 ± 0.2 µM; IC90 [3]: 14 ± 0.3 µM; melting point: 162 to 164 °C; log Ks ([5]; pH 7, per base): 5.36; log Ks ([6]; pH 7, n fixed, per base): 4.29
